# Legend:
# DLD-1 cells = assay: Cytotoxicity, Hoechst DNA assay, DLD-1; type: cell-based, human; conditions: ± SD
# Procedure, shortened: (§1)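 Cells grown at 37 °C, 5% CO2, in MEM with 10% FBS. Compound cytotoxicity was measured by Hoechst DNA staining. Activity is expressed as IC50, the concentration inhibiting 50% of cell growth.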
# WS-1 cells = assay: Cytotoxicity, Hoechst DNA assay, WS-1; type: cell-based, human; conditions: ± SD
# Procedure, shortened: as §1
# [1] = tested on: PA-1 human ovary teratocarcinoma cells; assay: Cytotoxicity, resazurin metabolism assay, PA-1; type: cell-based; conditions: mean ± SD
# From the text: Human lung carcinoma (A-549), human colon adenocarcinoma (DLD-1), human normal fibroblasts (WS1), mice melanoma (B16-F1), Human glioma (U-251), Human hepatocellular carcinoma (HEP G2), Human prostate adenocarcinoma (PC-3), Human ovary teratocarcinoma metastatic (PA-1), Human breast adenocarcinona metastatic (MDA-MB-231), Human breast adenocarcinoma (MCF-7) and Human malignant melanoma (SK-MEL-2) cell lines were obtained from the American Type Culture Collection (ATCC). All cell lines were cultured in minimum essential medium containing Earle's salts and L-glutamine (Mediatech Cellgro, Va.), to which was added 10% fetal bovine serum (Hyclone), vitamins (1×), penicillin (100 I.U./mL) and streptomycin (100 μg/mL), essential amino acids (1×) and sodium pyruvate (1×) (Mediatech Cellgro, Va.). Cells were kept at 37° C. in a humidified environment containing 5% CO2.
# Exponentially growing cells were plated in 96-well microplates (Costar, Corning Inc.) at a density of 5×10^3 cells per well in 100 μL of culture medium and were allowed to adhere for 16 hours before treatment. Increasing concentrations of each compound in DMSO (Sigma-Aldrich) were then added (100 μL per well) and the cells were incubated for 48 h. […] Cytotoxicity was assessed using resazurin (O'Brien, J. et al., Eur. J. Biochem. 2000, 267, 5421-5426) on an automated 96-well Fluoroskan Ascent F1™ plate reader (Labsystems) using excitation and emission wavelengths of 530 nm and 590 nm, respectively. Fluorescence was proportional to the cellular metabolic activity in each well. Survival percentage was defined as the fluorescence in experimental wells compared to that in control wells after subtraction of blank values. Each experiment was carried out three times in triplicata. IC50 results were expressed as mean±standard deviation.
# Compounds presented in Table 5 below were also tested in the following tumour cell lines: U-251 (Human glioma), HEP G2 (Human hepatocellular carcinoma), PC-3 (Human prostate adenocarcinoma), PA-1 (Human ovary teratocarcinoma metastatic), MDA-MB-231 (Human breast adenocarcinona metastatic), MCF-7 (Human breast adenocarcinoma) and SK-MEL-2 (Human malignant melanoma).
# [2] = tested on: B16-F1 mouse melanoma cells; assay: Cytotoxicity, resazurin metabolism assay, B16-F1; type: cell-based; conditions: 48 h, mean ± SD
# Procedure, shortened: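 Cells plated at 5×10^3/well, adhered 16 h, then exposed to increasing compound concentrations (DMSO) for 48 h. Viability by resazurin reduction, fluorescence ex 530/em 590 nm, blank-subtracted versus control wells; IC50 as mean±SD from three experiments in triplicate.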
# [3] = Determination of the maximum tolerated dose (MTD) after a single IP injection; type: in vivo, mice; conditions: for CSS Closed eyes / CSS Diarrhea / CSS Lethargy / CSS Rough coat / CSS Total / Number of deaths: 5 mice
# Protocol: Groups of five mice (Charles River) received a single IP injection of 3-O-α-L-rhamnopyranoside betulinic acid (22) in DMSO at doses of 50, 100, 250 and 500 mg/kg of body weight. […] A group of five control mice received the vehicle (DMSO). […] For each animal, a score was calculated based on the absence (value 0) or presence (value 1) of diarrhoea, lethargy, rough coat and closed eyes. A clinical state score (CSS) was then calculated per group by summing individual scores. All the mice were weighed daily during 3 days following the injection. The maximal weight loss was determined 24 hours and 3 days following the injection. The MTD was defined as the highest single dose that met all the following criteria: 1) zero death per group; 2) maximal weight loss 20% in non-tumour bearing animals; and 3) CSS value lower than 15.
smiles,measurement,setting,value
"C=C(C)[C@@H]1CC[C@]2(C(=O)O)CC[C@]3(C)[C@H](CC[C@@H]4[C@@]5(C)CC[C@H](O[C@@H]6O[C@@H](C)[C@H](O)[C@@H](O)[C@H]6O)C(C)(C)[C@@H]5CC[C@]43C)[C@@H]12 [Compound 22, 3-O-α-L-Rhamnopyranoside of betulinic acid]",IC50,DLD-1 cells,3.4 ± 0.5 µM
same,IC50,WS-1 cells,38 ± 6 µM
same,IC50,[1],8 ± 1 µM
same,IC50,[2],3.9 ± 0.4 µM
same,Max. weight loss after 24 hours,[3]; 50 mg/kg single IP,11%
same,Max. weight loss after 3 days,[3]; 50 mg/kg single IP,0%
same,CSS Closed eyes,[3]; 50 mg/kg single IP,0
same,CSS Diarrhea,[3]; 50 mg/kg single IP,0
same,CSS Lethargy,[3]; 50 mg/kg single IP,0
same,CSS Rough coat,[3]; 50 mg/kg single IP,0
same,CSS Total,[3]; 50 mg/kg single IP,0
same,Number of deaths,[3]; 50 mg/kg single IP,0
same,Max. weight loss after 24 hours,[3]; 100 mg/kg single IP,14%
same,Max. weight loss after 3 days,[3]; 100 mg/kg single IP,0%
same,CSS Closed eyes,[3]; 100 mg/kg single IP,0
same,CSS Diarrhea,[3]; 100 mg/kg single IP,0
same,CSS Lethargy,[3]; 100 mg/kg single IP,0
same,CSS Rough coat,[3]; 100 mg/kg single IP,0
same,CSS Total,[3]; 100 mg/kg single IP,0
same,Number of deaths,[3]; 100 mg/kg single IP,0
same,Max. weight loss after 24 hours,[3]; 250 mg/kg single IP,9%
same,Max. weight loss after 3 days,[3]; 250 mg/kg single IP,0%
same,CSS Closed eyes,[3]; 250 mg/kg single IP,5
same,CSS Diarrhea,[3]; 250 mg/kg single IP,0
same,CSS Lethargy,[3]; 250 mg/kg single IP,0
same,CSS Rough coat,[3]; 250 mg/kg single IP,5
same,CSS Total,[3]; 250 mg/kg single IP,10
same,Number of deaths,[3]; 250 mg/kg single IP,0
same,Max. weight loss after 24 hours,[3]; 500 mg/kg single IP,11%
same,Max. weight loss after 3 days,[3]; 500 mg/kg single IP,0%
same,"Rough coat and closed eyes observed, share of the mice",[3]; 500 mg/kg single IP,100%
same,CSS Closed eyes,[3]; 500 mg/kg single IP,5
same,CSS Diarrhea,[3]; 500 mg/kg single IP,5
same,CSS Lethargy,[3]; 500 mg/kg single IP,2
same,CSS Rough coat,[3]; 500 mg/kg single IP,5
same,CSS Total,[3]; 500 mg/kg single IP,17
same,Number of deaths,[3]; 500 mg/kg single IP,0
same,Calculated dose for an average human weighting 60 kg,[3]; 60 kg human,139.8 mg
same,Body weight loss after 24 h,"[3]; all tested doses (50-500 mg/kg), single IP",9-14%
same,Mortality,"[3]; all tested doses, single IP",no mortality
same,Weight loss after 3 days (returned to initial weight),"[3]; all tested doses, single IP",0%
same,"Calculated MTD (human, after security factor of 10)",[3]; human equivalent dose divided by 10,2.33 mg/kg
same,MTD (maximum tolerated dose),"[3]; mice, single IP injection in DMSO",250 mg/kg
same,MTD equivalent in human (human equivalent dose),[3]; mouse MTD 250 mg/kg divided by conversion factor 12.3,20.33 mg/kg
